Structures are written as SMILES.

Chain of CK1ε (P49674 whole entry): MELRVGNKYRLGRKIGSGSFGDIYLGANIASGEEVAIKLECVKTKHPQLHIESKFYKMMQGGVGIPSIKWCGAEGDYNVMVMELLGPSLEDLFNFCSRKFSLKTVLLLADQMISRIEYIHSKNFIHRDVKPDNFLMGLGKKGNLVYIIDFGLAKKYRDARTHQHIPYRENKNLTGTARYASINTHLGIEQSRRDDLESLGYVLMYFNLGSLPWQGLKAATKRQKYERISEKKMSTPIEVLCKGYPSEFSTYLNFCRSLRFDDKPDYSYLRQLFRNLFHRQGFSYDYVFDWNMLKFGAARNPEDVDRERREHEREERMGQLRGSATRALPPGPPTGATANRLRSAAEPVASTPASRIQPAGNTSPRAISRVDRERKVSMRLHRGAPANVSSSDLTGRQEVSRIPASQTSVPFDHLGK

The first assay concerns the target CK1ε (Homo sapiens (Human), UniProt P49674). Put plainly: CK1ε kinase assay (Caliper LABCHIP electrophoretic separation of fluoresceinated peptide substrate and product). The format is biochemical. The conditions noted are these: 200 pM CK1ε, 50 μM ATP, 1.5 μM peptide substrate, 22 hours at room temperature; read-out: CK1ε (IC50). The method, then: (§1) CK1ε and CK1δ Kinase Assays
(§2) The kinase assay was performed in V-bottom 384-well plates. […] The reaction was incubated at room temperature for 22 hours and terminated by adding 45 μl of 35 mM EDTA to each sample. The reaction mixture was analyzed on the Caliper LABCHIP®3000 (Caliper, Hopkinton, Mass.) by electrophoretic separation of the unphosphorylated substrate and phosphorylated product. […] Compounds were dissolved at 10 mM in dimethylsulfoxide (DMSO) and evaluated at eleven concentrations. IC50 values were derived by non-linear regression analysis.
Turning to `NC(=O)c1c(-c2ccc(F)c(Cl)c2)nn2c1CN(C(=O)Nc1ccc3ccncc3c1)CC2` [Compound 196, 2-(3-Chloro-4-fluorophenyl)-N^5-(isoquinolin-7-yl)-6,7-dihydropyrazolo[1,5-a] pyrazine-3,5(4H)-dicarboxamide], the IC50 was 0.01 to 10 nM.
As for `CN(C)c1cc(Cl)cc(-c2nn3c(c2C(N)=O)CN(C(=O)Nc2ccc(C#N)cc2)CC3)c1` [Compound 265, 2-(3-Chloro-5-(dimethylamino)phenyl)-N^5-(4-cyanophenyl)-6,7-dihydropyrazolo[1,5-a]pyrazine-3,5(4H)-dicarboxamide], the IC50 was 0.01 to 10 nM.
Take `NC(=O)c1c(-c2cccc(F)c2)nn2c1CN(C(=O)NC13C[C@@H]4CC1C[C@@H](C4)C3)CC2` [Compound 23, 2-(3-Fluorophenyl)-N^5-((2R,5S)-octahydro-2,5-methanopentalen-6a-yl)-6,7-dihydropyrazolo[1,5-a]pyrazine-3,5(4H)-dicarboxamide]: the IC50 lay in the range of 0.01 to 10 nM.
Take `N#Cc1ccc(NC(=O)N2Cc3c(C(N)=O)c(-c4ccc(F)c(Cl)c4)nn3C(CF)C2)cc1Cl` (single isomer, unassigned) [Compound A15, N^5-(3-Chloro-4-cyanophenyl)-2-(3-chloro-4-fluorophenyl)-7-(fluoromethyl)-6,7-dihydropyrazolo[1,5-a]pyrazine-3,5(4H)-dicarboxamide]: the IC50 lay within 0.01 to 10 nM.
`CN(C)c1cc(Cl)cc(-c2nn3c(c2C(N)=O)CN(C(=O)Nc2ccc(C#N)c(Cl)c2)CC3)c1` [Compound 268, N^5-(3-Chloro-4-cyanophenyl)-2-(3-chloro-5-(dimethyl-amino)phenyl)-6,7-dihydropyrazolo[1,5-a] pyrazine-3,5(4H)-dicarboxamide]: the concentration for half-maximal inhibition (IC50) fell in the range of 0.01 to 10 nM.
Still for that read-out and setting: to `N#Cc1ccc(NC(=O)N2CCn3nc(-c4cc(Cl)c5cncn5c4)c(C(N)=O)c3C2)cc1` [Compound 308, 2-(8-Chloroimidazo[1,5-a]pyridin-6-yl)-N-(4-cyanophenyl)-6,7-dihydropyrazolo[1,5-a]pyrazine-3,5(4H)-dicarboxamide] belongs 0.01 to 10 nM; to `N#CC1(c2ccc(NC(=O)N3CCn4nc(-c5ccc(F)c(Cl)c5)c(C(N)=O)c4C3)cc2)CC1` [Compound A54, 2-(3-Chloro-4-fluorophenyl)-N^5-(4-(1-cyanocyclopropyl)phenyl)-6,7-dihydropyrazolo[1,5-a]pyrazine-3,5(4H)-dicarboxamide], 0.01 to 10 nM; to `N#Cc1ccc(NC(=O)N2Cc3c(C(N)=O)c(-c4ccc(F)c(Cl)c4)nn3[C@@H](CF)C2)cc1F` [Compound A17, (R)-2-(3-Chloro-4-fluorophenyl)-N^5-(4-cyano-3-fluorophenyl)-7-(fluoromethyl)-6,7-dihydropyrazolo[1,5-a]pyrazine-3,5(4H)-dicarboxamide], 0.01 to 10 nM.
For the compound `N#Cc1ccc(NC(=O)N2CCn3nc(-c4cc(Cl)c5[nH]ncc5c4)c(C(N)=O)c3C2)cc1` [Compound 315, 2-(7-Chloro-1H-indazol-5-yl)-N^5-(4-cyanophenyl)-6,7-dihydropyrazolo[1,5-a]pyrazine-3,5(4H)-dicarboxamide], the IC50 lay within 0.01 to 10 nM.
The same measure, in the same setting: to `CN(C)c1cc(Cl)cc(-c2nn3c(c2C(N)=O)CN(C(=O)Nc2ccc(C#N)c(F)c2)CC3)c1` [Compound 269, 2-(3-Chloro-5-(dimethylamino)phenyl)-N^5-(4-cyano-3-fluorophenyl)-6,7-dihydropyrazolo[1,5-a] pyrazine-3,5(4H)-dicarboxamide] belongs 0.01 to 10 nM.
`CC1CN(C(N)=O)Cc2c(C(=O)NC(C)(C)C)c(-c3ccc(Cl)c(Cl)c3)nn21` (stereo not shown) [Compound A33, N-(tert-Butyl)-2-(3,4-dichlorophenyl)-7-methyl-6,7-dihydropyrazolo[1,5-a]pyrazine-3,5(4H)-dicarboxamide]: the IC50 lay in the range of 0.01 to 10 nM.
Same read-out and setting: then `N#Cc1ccc(NC(=O)N2CCn3nc(-c4cc(Cl)c5ocnc5c4)c(C(N)=O)c3C2)cc1` [Compound 309, 2-(7-Chlorobenzo[d]oxazol-5-yl)-N^5-(4-cyanophenyl)-6,7-dihydropyrazolo[1,5-a]pyrazine-3,5(4H)-dicarboxamide], with 0.01 to 10 nM.
In the case of `N#Cc1ccc(NC(=O)N2CCn3nc(-c4cnc(F)c(Cl)c4)c(C(N)=O)c3C2)cc1F` [Compound 295, 2-(5-Chloro-6-fluoropyridin-3-yl)-N^5-(4-cyano-3-fluorophenyl)-6,7-dihydropyrazolo[1,5-a] pyrazine-3,5(4H)-dicarboxamide], the IC50 was in the range of 0.01 to 10 nM.
As for `N#Cc1ccc(NC(=O)N2Cc3c(C(N)=O)c(-c4ccc(F)c(Cl)c4)nn3[C@H](C(F)F)C2)cc1` [Compound A20, (S)-2-(3-Chloro-4-fluorophenyl)-N^5-(4-cyanophenyl)-7-(difluoromethyl)-6,7-dihydropyrazolo[1,5-a]pyrazine-3,5(4H)-dicarboxamide], the IC50 fell in the range of 0.01 to 10 nM.
As for `Cc1cc(NC(=O)N2CCn3nc(-c4cc(Cl)cc(N(C)C)c4)c(C(N)=O)c3C2)ccc1C#N` [Compound 267, 2-(3-Chloro-5-(dimethylamino)phenyl)-N^5-(4-cyano-3-methylphenyl)-6,7-dihydropyrazolo[1,5-a] pyrazine-3,5(4H)-dicarboxamide], the IC50 is 0.01 to 10 nM.
Consider `N#Cc1ccc(NC(=O)N2Cc3c(C(N)=O)c(-c4ccc(F)c(Cl)c4)nn3[C@@H](C(F)F)C2)cc1` [Compound A21, (R)-2-(3-Chloro-4-fluorophenyl)-N^5-(4-cyanophenyl)-7-(difluoromethyl)-6,7-dihydropyrazolo[1,5-a]pyrazine-3,5(4H)-dicarboxamide], for which the IC50 is 0.01 to 10 nM.
With `Cc1cc(-c2nn3c(c2C(N)=O)CN(C(=O)Nc2ccc(C#N)c(C)c2)CC3)ccc1F` [Compound 239, N^5-(4-Cyano-3-methylphenyl)-2-(4-fluoro-3-methylphenyl)-6,7-dihydropyrazolo[1,5-a]pyrazine-3,5(4H)-dicarboxamide], the IC50 was in the range of 0.01 to 10 nM.
As for `Cc1cc(C)cc(-c2nn3c(c2C(N)=O)CN(C(=O)NC(C)(C)C)CC3)c1` [Compound 128, N^5-(tert-Butyl)-2-(3,5-dimethylphenyl)-6,7-dihydropyrazolo[1,5-a]pyrazine-3,5(4H)-dicarboxamide], the half-maximal inhibitory concentration (IC50) lay within 0.01 to 10 nM.
Regarding `N#Cc1ccc(NC(=O)N2CCn3nc(-c4ccc(C5CC5)c(Cl)c4)c(C(N)=O)c3C2)cc1` [Compound 258, 2-(3-Chloro-4-cyclopropylphenyl)-N^5-(4-cyanophenyl)-6,7-dihydropyrazolo[1,5-a]pyrazine-3,5(4H)-dicarboxamide], the IC50 was 0.01 to 10 nM.
On the same count and under the same terms, to `N#Cc1ccc(NC(=O)N2Cc3c(C(N)=O)c(-c4ccc(F)c(Cl)c4)nn3[C@H](CF)C2)cc1F` [Compound A16, (S)-2-(3-Chloro-4-fluorophenyl)-N^5-(4-cyano-3-fluorophenyl)-7-(fluoromethyl)-6,7-dihydropyrazolo[1,5-a]pyrazine-3,5(4H)-dicarboxamide] belongs 0.01 to 10 nM.

Staying with this assay, now noted: CK1ε (IC50, nM).
`CCC1CN(C(=O)Nc2ccc(C#N)cc2)Cc2c(C(N)=O)c(-c3ccc(F)c(Cl)c3)nn21` (single isomer, unassigned) [Compound A68, 2-(3-Chloro-4-fluorophenyl)-N^5-(4-cyanophenyl)-7-ethyl-6,7-dihydropyrazolo[1,5-a]pyrazine-3,5(4H)-dicarboxamide] yielded an IC50 of 0.01 to 10 nM.

Staying with this assay, now noted: read-out: CK1ε (IC50).
`N#Cc1ccc(NC(=O)N2CCn3nc(-c4cnc(F)c(Cl)c4)c(C(N)=O)c3C2)cc1Cl` [Compound 296, N^5-(3-Chloro-4-cyanophenyl)-2-(5-chloro-6-fluoropyridin-3-yl)-6,7-dihydropyrazolo[1,5-a] pyrazine-3,5(4H)-dicarboxamide]: the IC50 is 0.01 to 10 nM.
On the same count and under the same terms, then `CCC1CN(C(=O)Nc2ccc(C#N)cc2)Cc2c(C(N)=O)c(-c3ccc(F)c(Cl)c3)nn21` (single isomer, unassigned) [Compound A69, 2-(3-Chloro-4-fluorophenyl)-N^5-(4-cyanophenyl)-7-ethyl-6,7-dihydropyrazolo[1,5-a]pyrazine-3,5(4H)-dicarboxamide], with 0.01 to 10 nM.

For a further assay, the target named is CK1δ (Homo sapiens (Human), UniProt P48730). Put plainly: CK1δ kinase assay (Caliper LABCHIP electrophoretic separation of fluoresceinated peptide substrate and product). It is filed as biochemical. The settings on record: 200 pM CK1δ, 50 μM ATP, 1.5 μM peptide substrate, 22 hours at room temperature; read-out: CK1δ (IC50). The protocol: as §1, §2
Chain of CK1δ (P48730 whole entry): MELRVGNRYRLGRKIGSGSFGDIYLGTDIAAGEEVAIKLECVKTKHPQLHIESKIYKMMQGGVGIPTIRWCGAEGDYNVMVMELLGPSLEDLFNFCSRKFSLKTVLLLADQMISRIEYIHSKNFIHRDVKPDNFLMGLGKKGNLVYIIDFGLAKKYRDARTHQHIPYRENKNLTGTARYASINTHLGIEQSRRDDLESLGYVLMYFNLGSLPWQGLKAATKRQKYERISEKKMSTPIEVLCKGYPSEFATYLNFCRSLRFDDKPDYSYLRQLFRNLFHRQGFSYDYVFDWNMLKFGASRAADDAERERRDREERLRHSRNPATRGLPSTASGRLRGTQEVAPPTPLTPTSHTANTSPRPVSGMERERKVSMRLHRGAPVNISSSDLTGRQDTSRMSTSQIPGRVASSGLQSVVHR
As for `Cc1ccc(NC(=O)N2CCn3nc(-c4cccc(F)c4)c(C(N)=O)c3C2)cn1` [Compound 86, 2-(3-Fluorophenyl)-N^5-(6-methylpyridin-3-yl)-6,7-dihydropyrazolo[1,5-a]pyrazine-3,5(4H)-dicarboxamide], the IC50 is 0.01 to 10 nM.
Take `CC(C)(NC(=O)N1CCn2nc(-c3cccc(F)c3)c(C(N)=O)c2C1)c1ccc(F)cc1` [Compound 17, 2-(3-Fluorophenyl)-N^5-(2-(4-fluorophenyl)propan-2-yl)-6,7-dihydropyrazolo[1,5-a]pyrazine-3,5(4H)-dicarboxamide]: the IC50 was in the range of 0.01 to 10 nM.
Take `NC(=O)c1c(-c2cccc(F)c2)nn2c1CN(C(=O)Nc1ccc(OC(F)F)cc1)CC2` [Compound 89, N^5-(4-(Difluoromethoxy)phenyl)-2-(3-fluorophenyl)-6,7-dihydropyrazolo[1,5-a]pyrazine-3,5(4H)-dicarboxamide]: the IC50 was in the range of 0.01 to 10 nM.
Consider `NC(=O)c1c(-c2ccc(F)cc2)nn2c1CN(C(=O)NC1CCCCC1)CC2` [Compound 3, N^5-Cyclohexyl-2-(4-fluorophenyl)-6,7-dihydropyrazolo[1,5-a]pyrazine-3,5(4H)-dicarboxamide], for which the 50% inhibitory concentration (IC50) was in the range of 0.01 to 10 nM.
On the same count and under the same terms, to `N#Cc1ccc(NC(=O)N2Cc3c(C(N)=O)c(-c4ccc(F)c(Cl)c4)nn3C(C(F)F)C2)cc1Cl` (stereo not shown) [Compound A19, N^5-(3-Chloro-4-cyanophenyl)-2-(3-chloro-4-fluorophenyl)-7-(difluoromethyl)-6,7-dihydropyrazolo[1,5-a]pyrazine-3,5(4H)-dicarboxamide] belongs 0.01 to 10 nM.

Values taken from patent US9598423B2 (BRISTOL-MYERS SQUIBB COMPANY, priority 2013, dated 2017).
